Experimental data: patent publication US20130096067A1, “DROSOPHILA TUMOR STEM CELL MODEL AND USES THEREOF” (priority 2011, published 2013)
Like-named read-outs stand apart in the source and are kept apart here. Peptide text beside a SMILES is read from it. * marks the point of attachment. CH2Cl = ClC*

System: Raf-1^gof intestinal tumors
Settings: for Fold: Table 3 summary of hits, Screen ICCB, luciferase relative to DMSO, fed three consecutive days in vials
[1] = screen of 480 ICCB compounds in vials, compounds fed to flies with one-day old Raf-1^gof tumors, assessed three days later, esg-Gal4 luciferase
[2] = screen of 480 ICCB compounds in vials, compounds fed to flies with one-day old Raf-1^gof tumors, assessed three days later, esg-Gal4 luciferase, averaged from multiple wells
[3] = ICCB compounds fed in vials to flies with one-day old Raf-1^gof tumors, assessed three days later
[4] = ICCB compounds fed in vials to flies with one-day old Raf-1^gof tumors, assessed three days later, averaged from multiple wells
For Fold (luciferase activity relative to DMSO controls) in this document: test concentration or dose not given here.
For Fold (luciferase activity, fold difference relative to DMSO controls) in this document: test concentration or dose not given here.
For Log2 (fold) (luciferase activity, log2 of the fold difference relative to DMSO controls) in this document: test concentration or dose not given here.
For Log2 (fold) of luciferase activity relative to DMSO controls in this document: test concentration or dose not given here.

Compound	Log2 (fold) (luciferase activity, log2 of the fold difference relative to DMSO controls) [1]	Fold (luciferase activity, fold difference relative to DMSO controls) [2]	Log2 (fold) of luciferase activity relative to DMSO controls [3]	Fold (luciferase activity relative to DMSO controls) [4] [fold]	further results
CC(C)(C)c1cc(O)c(C(C)(C)C)cc1O [2,5-ditertbutylhydroquinone]	−0.293	0.816			
O=C1Nc2ccc(I)cc2/C1=C/c1cc(Br)c(O)c(Br)c1 [GW-5074]	−0.369	0.774			
N#C/C(=C/c1ccc(O)c(O)c1)C(=O)NCc1ccccc1 [AG-490]	−0.272	0.828			
COc1cc(-c2ccc(=O)[nH]n2)ccc1OC(F)F [zardaverine]			0.145	1.106	
C/C=C1\[C@H]2C=C(C)C[C@]1(N)c1ccc(=O)[nH]c1C2 [Huperzine A [(−)-Huperzine A]]	−0.641	0.641			
CCCCCCCC/C=C\CCCCCCCCOC[C@H](COP(=O)([O-])OCC[N+](C)(C)C)OC(C)=O [PAF C18:1]	−0.420	0.747			
CCCCc1oc2ccccc2c1C(=O)c1cc(I)c(OCCN(CC)CC)c(I)c1 [AMIODARONE]			0.102	1.074	
CC1=C(/C=C/C(C)=C/C=C/C(C)=C/C(=O)Nc2ccc(O)cc2)C(C)(C)CCC1 [4-HYDROXYPHENYLRETINAMIDE]	−0.244	0.845			
CC/C(=C(\c1ccccc1)c1ccc(OCCN(C)C)cc1)c1ccccc1 [tamoxifen, reference compound]	−1.562	0.339			Fold: 0.339 fold
CCCCC/C=C\C[C@H](O)/C=C/C=C\C/C=C\CCCC(=O)O [12(S)-HETE]			0.055	1.039	
CC(=O)N[C@@H](CSC/C=C(\C)CC/C=C(\C)CC/C=C(\C)CCC=C(C)C)C(=O)O [AGGC]					Fold (luciferase activity relative to DMSO controls) (in vivo): 1.001 fold; Log2 (fold) of luciferase activity relative to DMSO controls (in vivo): 0.001
CC1=C(C)C(=O)C(CCCCC#CCCCC#CCO)=C(C)C1=O [AA-861]	−0.444	0.735			
O[C@H]1[C@H]2[C@H](O)CCCN2C[C@H]1O [swainsonine]	−0.233	0.851			
BW-B 70C			0.116	1.084	
CCCCCCCCCCCCCCCC(=O)N[C@H](CN1CCOCC1)[C@H](O)c1ccccc1 (racemic) [DL-PPMP]			0.108	1.078	
CC(=O)N[C@@H](CSC/C=C(\C)CC/C=C(\C)CCC=C(C)C)C(=O)O	−0.664	0.631			
LY-83583	−0.465	0.725			
CCCCCCCCCCCCCC(=O)N[C@@H](C)[C@H](O)c1ccccc1 [MAPP, L-erythro]			0.104	1.075	
NC(=NCc1ccccc1)NC(=O)c1nc(Cl)c(N)nc1N [BENZAMIL]			0.006	1.004	
Cyclo [Cyclo [Arg-Gly-Asp-D-Phe-Val]]	−0.221	0.858			
CCCCC/C=C\C\C=C/C=C/C=C/[C@@H](SCC(NC(C)=O)C(=O)O)[C@@H](O)CCCC(=O)O (stereo partly shown) [N-ACETYL-LEUKOTRIENE E4]	−0.318	0.802			
Fc1ccc(C(c2ccc(F)cc2)N2CCN(C/C=C/c3ccccc3)CC2)cc1 [FLUNARIZINE]	−0.836	0.560			
CCCCC[C@H](O)/C=C/[C@@H]1[C@@H](CCCCCCC(=O)O)[C@@H](O)C[C@H]1O [PROSTAGLANDIN F1a]			−0.208	0.866	
Cn1c2ccccc2c2c3c(c4c5ccccc5n(CCC#N)c4c21)CNC3=O [Go6976]	−0.287	0.819			
c1ccc2c(Cc3c[nH]c4ccccc34)c[nH]c2c1 [DIINDOLYLMETHANE]			0.465	1.381	

Compound	Log2 (fold) (luciferase activity, log2 of the fold difference relative to DMSO controls) [1]	Fold (luciferase activity, fold difference relative to DMSO controls) [2]	Log2 (fold) of luciferase activity relative to DMSO controls [3]	Fold (luciferase activity relative to DMSO controls) [4] [fold]	further results
tunicamycin [reference compound]	−1.925	0.263			Fold: 0.263 fold
COc1ccc(CCN(C)CCCC(C#N)(c2ccc(OC)c(OC)c2)C(C)C)cc1OC (stereo not shown)					Fold (luciferase activity, fold difference relative to DMSO controls) (in vivo): 0.838; Log2 (fold) (luciferase activity, log2 of the fold difference relative to DMSO controls) (in vivo): −0.255
CC(=O)c1c(O)c(C)c(O)c(Cc2c(O)c3c(c(C(=O)/C=C/c4ccccc4)c2O)OC(C)(C)C=C3)c1O [Rottlerin]	−0.865	0.549			
C[C@H](N)C(=O)N[C@@H](C)C(=O)N[C@@H](Cc1ccccc1)C(=O)CCl [Ala-Ala-Phe-CMK] (H-Ala-Ala-Phe-CH2Cl)	−0.738	0.599			
N#CC(C#N)=Cc1ccc(O)cc1 [Tyrphostin-8]					Fold (luciferase activity, fold difference relative to DMSO controls) (in vivo): 0.796; Log2 (fold) (luciferase activity, log2 of the fold difference relative to DMSO controls) (in vivo): −0.329
CCCCC[C@H](O)/C=C/C=C\CCCCCCCC(=O)O [13(S)-HODE]			−0.141	0.907	
CCCOc1ccccc1-c1nc2nn[nH]c2c(=O)[nH]1 [zaprinast]			−0.055	0.962	
Cc1ccc(-c2nn(C(C)(C)C)c3ncnc(N)c23)cc1 [PP1]			0.503	1.418	
Br.NC1CCc2cc(O)c(O)cc2C1 (stereo not shown) [6,7-ADTN HBr]	−0.383	0.767			
O=c1c(O)c(-c2ccc(O)c(O)c2)oc2cc(O)cc(O)c12 [quercetin]					Fold (luciferase activity, fold difference relative to DMSO controls) (in vivo): 0.737; Log2 (fold) (luciferase activity, log2 of the fold difference relative to DMSO controls) (in vivo): −0.440
COC(C)(C)CCCC(C)C/C=C/C(C)=C/C(=O)O (stereo not shown) [METHOPRENE ACID]	−0.328	0.796			
CNC(=O)[C@H]1O[C@@H](n2cnc3c(NCc4cccc(I)c4)ncnc32)[C@H](O)[C@@H]1O [IB-MECA]			−0.083	0.944	
CCCCC/C=C\C\C=C/C=C/C=C/[C@@H](SC[C@H](N)C(=O)NCC(=O)O)[C@@H](O)CCCC(=O)O [LEUKOTRIENE D4]			0.234	1.176	
CC(=O)N[C@@H](CC(C)C)C(=O)N[C@@H](CC(C)C)C(=O)N[C@H](C=O)CCCNC(=N)N [Leupeptin]			−0.038	0.974	
CS(=O)(=O)Nc1ccc([N+](=O)[O-])cc1OC1CCCCC1 [NS-398]	−0.592	0.663			
CC(=O)OCOC(c1cc([N+](=O)[O-])ccc1Oc1ccc(Br)cc1)P(=O)(OCOC(C)=O)OCOC(C)=O (stereo not shown) [RWJ-60475-(AM)3]	−0.217	0.861			
CCCCC/C=C\C/C=C\CCCCCCCC(=O)NCC(=O)O [N-LINOLEOYLGLYCINE]	−0.285	0.821			
MDL-28170	−0.617	0.652			
CCCCC/C=C\CC1OC1CCCCCCCC(=O)O (stereo not shown) [LEUKOTOXIN A (9,10-EODE)]	−0.216	0.861			
CCCCCC=CCC=CCC=CCC1OC1CCCC(=O)O (stereo not shown) [5,6-EPOXYEICOSATRIENOIC ACID]			−0.164	0.892	
METHOXY VERAPAMIL			−0.069	0.954	
CCCCC/C=C\C\C=C/C=C/C=C/[C@@H](SC[C@H](NC(=O)CC[C@H](N)C(=O)O)C(=O)NCC(=O)O)[C@@H](O)CCCC(=O)O [LEUKOTRIENE C4]			0.114	1.082	
O=c1c(-c2ccc(O)cc2)coc2cc(O)cc(O)c12 [genistein]	−0.275	0.826			
CCCCC/C=C\C/C=C\CCCCCCCC(N)=O [LINOLEAMIDE]			−0.027	0.981	
